For data set [1], the target named is T1, Human Histamine H3 Receptor (Homo sapiens, UniProt Q9Y5N1).
T1 construct: expressed in transfected cells; host or cells: HEK293T (stably transfected; membrane preparation)
The data set can be described thus: Methyl histamine binding in Human Histamine H3 Receptor Cell Line. As to conditions: read-out: hH3 Binding Ki. The protocol: Evaluation of Methyl histamine binding in Human Histamine H3 Receptor Cell Line
The affinity of test compounds for the histamine 3 (H3) receptor is evaluated in the following manner. […] Cells are scraped from the plate, transferred to centrifuge tubes, washed one time in PBS by centrifugation in a Sorvall RT7 Plus centrifuge (2000 rpm 10 minutes, 4° C.). The resulting pellets are stored at −80° C. until ready for use. Cells are re-suspended in buffer (50 mM Tris pH=7.5) and placed in a Dounce homogenizer, douncing ten times to homogenize cells. The homogenate is spun down by centrifugation (Sorvall RT7 Plus, 1800 rpm 10 minutes, 4° C.). The supernatant is placed in a Corex tube and spun down by centrifugation (Sorvall RC 5c Plus, 17,000 rpm 20 minutes, 4° C.). The pellet is resuspended in buffer (50 mM Tris, pH 7.5). Protein concentration (ug/ul) is determined using the Micro-BCA Protein Determination. The binding assay is set up in a 96 well microtiter plate in a total volume of 250 uL. Non-specific binding is determined in the presence of 10 uM clobenpropit. The final radioligand concentration is 1 nM. The test compound is serially diluted using the Beckman Biomek2000 to a final approximate range of 100 uM to 100 pM. Membranes are suspended in buffer, homogenized in 2 bursts of ten seconds using a Vitris mechanical homogenizer set at power setting 5. Ten μg of membranes are added to each well. Following a one hour incubation at 30° C., the reaction is terminated by the addition of ice cold buffer and rapid filtration with a Packard Filtermate Harvester through a GF/B filter pre-soaked with 1% PEI for one hour. The plate is dried for one hour at 37° C. and 60 μL Microscint Scintillant is added to each well. The CPM per well is measured on a Packard Top Count NXT. Ki values are determined in nM. […] CPM values are expressed as % specific binding and plotted vs compound concentration. A curve is fitted using a four-parameter logistic fit and the IC50 value is determined. The Ki is calculated from this using the Cheng-Prusoff equation: […]=IC50/1+(L/Kd) where L=concentration of free radioligand used in the assay, and Kd is the dissociation constant of the radioligand for the receptor. L is determined for each experiment by counting an aliquot of the diluted radioligand (corresponding to that added to each well) and the Kd has previously been determined under identical conditions for this cell line/radioligand.

Drawing on patent US20080293771A1, “AZACYCLYLBENZAMIDE DERIVATIVES AS HISTAMINE-3 ANTAGONISTS” (Wyeth, priority 2007, published 2008), this text covers Ki and melting point for 13 compounds.

Where a name gives a salt, the structure may show the parent alone. Where only a bound is given, the exact number is not on record here.

A word on the Ki: it is the dissociation constant of the complex between target and ligand, obtained from inhibition or displacement. Broadly, the melting point is the temperature of the solid-liquid transition.

T1 sequence (Q9Y5N1 whole entry): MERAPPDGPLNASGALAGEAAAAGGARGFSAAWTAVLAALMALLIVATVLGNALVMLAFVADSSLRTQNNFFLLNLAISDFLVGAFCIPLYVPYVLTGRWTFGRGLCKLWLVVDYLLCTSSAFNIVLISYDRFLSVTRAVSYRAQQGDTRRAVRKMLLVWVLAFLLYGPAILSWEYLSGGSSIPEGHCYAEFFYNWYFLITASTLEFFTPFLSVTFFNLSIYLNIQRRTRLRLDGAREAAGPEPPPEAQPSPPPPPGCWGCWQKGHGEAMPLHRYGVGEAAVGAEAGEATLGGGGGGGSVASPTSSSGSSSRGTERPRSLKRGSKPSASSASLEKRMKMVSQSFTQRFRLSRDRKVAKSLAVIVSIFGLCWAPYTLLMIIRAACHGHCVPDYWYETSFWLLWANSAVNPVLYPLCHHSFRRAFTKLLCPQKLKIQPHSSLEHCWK

Take `CN(C(=O)c1ccc(Cn2cnc3ccccc32)cc1)C1CCNCC1` [Example 45, 4-((1H-benzo[d]imidazol-1-yl)methyl)-n-methyl-N-(piperidin-4-yl)benzamide]: the melting point lay in the range of 199 to 201 °C. For the same compound, the Ki in data set [1] was greater than 100 nM. The matching figures for `Cc1nc2cc(C#N)ccc2n1-c1ccc(C(=O)N(C)[C@@H]2CCNC2)cc1` [Example 53, (R)-4-(5-cyano-2-methyl-benzoimidazol-1-yl)-N-methyl-N-pyrrolidin-3-yl-benzamide]: 178 to 180 °C and greater than 100 nM. With `CN(C(=O)c1ccc(Cn2cnc3ccccc32)cc1)C1CCN(C2CCC2)CC1` [Example 50, 4-(1H-benzimidazol-1-ylmethyl)-N-(1-cyclobutylpiperidin-4-yl)-N-methylbenzamide], the Ki in data set [1] was greater than 100 nM.

With `CCN(C(=O)c1ccc(-n2c(C)nc3ccccc32)cc1)[C@@H]1CCNC1` [Example 138, (R)—N-ethyl-4-(2-methyl-1H-benzo[d]imidazol-1-yl)-N-(pyrrolidin-3-yl)benzamide hydrochloride], the Ki in data set [1] is greater than 100 nM. The same measure, in the same setting: then `CN(C(=O)c1ccc(-n2ncc3ccccc32)cc1)[C@@H]1CCN(C2CCCC2)C1` [Example 66, N-[(3R)-1-cyclopentylpyrrolidin-3-yl]-4-(1H-indazol-1-yl)-N-methylbenzamide], with 10.1 to 50 nM; and `CC(C)N1CCC(N(C)C(=O)c2ccc(Cn3cnc4ccccc43)cc2)CC1` [Example 49, 4-(1H-benzimidazol-1-ylmethyl)-N-(1-isopropylpiperidin-4-yl)-N-methylbenzamide], with 50.1 to 100 nM.

On to `CN(C(=O)c1ccc(Cn2cccn2)cc1)C1CCN(C2CCC2)CC1` [Example 92, N-(1-cyclobutylpiperidin-4-yl)-N-methyl-4-(1H-pyrazol-1-ylmethyl)benzamide], for which the Ki in data set [1] was greater than 100 nM. Same read-out and setting: the result for `Cc1nc2ccccc2n1-c1ccc(C(=O)N(C)C2CCN(C3CCCCC3)CC2)cc1` [Example 33, N-(1-cyclohexylpiperidin-4-yl)-N-methyl-4-(2-methyl-1H-benzimidazol-1-yl)benzamide] reads greater than 100 nM.

Regarding `Cc1nc2ccccc2n1Cc1ccc(C(=O)N(C)C2CCNCC2)cc1` [Example 44, N-methyl-4-((2-methyl-1H-benzo[d]imidazol-1-yl)methyl)-N-(piperidin-4-yl)benzamide], the melting point was 196 to 198 °C. Besides, the Ki in data set [1] is greater than 100 nM.

As to `CN(C(=O)c1ccc(-n2cc3ccccc3n2)cc1)C1CCN(C2CCCC2)CC1` [Example 71, N-(1-cyclopentylpiperidin-4-yl)-4-(2H-indazol-2-yl)-N-methylbenzamide], the Ki in data set [1] is greater than 100 nM. On the same count and under the same terms, then `CC(C)N1CCC(N(C)C(=O)c2ccc(-n3ncc4ccccc43)cc2)CC1` [Example 72, 4-(1H-indazol-1-yl)-N-(1-isopropylpiperidin-4-yl)-N-methylbenzamide], with 50.1 to 100 nM; and `CN(C(=O)c1ccc(-n2ncc3ccccc32)cc1)C1CCN(C2CCCC2)CC1` [Example 74, N-(1-cyclopentylpiperidin-4-yl)-4-(1H-indazol-1-yl)-N-methylbenzamide], with greater than 100 nM. Still for that read-out and setting: the result for `Cc1nc2ccccc2n1-c1ccc(C(=O)N(C)[C@@H]2CCN(C(C)C)C2)cc1F` [Example 103, 3-fluoro-N-methyl-4-(2-methyl-1H-benzimidazol-1-yl)-N-[(3R)-1-(1-methylethyl)pyrrolidin-3-yl]benzamide] reads 10.1 to 50 nM.
